Experimental data published in patent publication US10597388B2, “Pyridazinone herbicides” (FMC CORPORATION, priority 2014, dated 2020).

Key:
Assay type in all cases: in vivo
[1] = system: barnyardgrass (Echinochloa crus-galli); assay: Test A greenhouse herbicide test, pre- and postemergence
Method in brief: (§1)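 Visual injury ratings, 0 (no effect) to 100 (complete control), versus untreated plants after roughly 10 d in a greenhouse. Compounds, formulated in a surfactant-containing non-phytotoxic solvent, were sprayed on loam–sand soil after sowing (pre) or on one- to two-leaf plants 2–10 cm tall (post).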

[2] = system: corn (Zea mays); assay: as above; conditions: Postemergence; for Plant response rating, Corn: 125 g ai/ha, 0 to 100 scale where 0 is no effect and 100 is complete control; for Corn plant response rating: 500 g ai/ha, 0 to 100 scale, 0 is no effect, 100 is complete control
Method in brief: as §1

[3] = system: foxtail, giant (giant foxtail, Setaria faberii); assay: as above
Method in brief: as §1

[4] = system: pigweed (Amaranthus retroflexus); assay: as above
Method in brief: as §1

[5] = system: ragweed (common ragweed, Ambrosia elatior); assay: as above
Method in brief: as §1

[6] = system: blackgrass (Alopecurus myosuroides); assay: Test A greenhouse herbicide test, postemergence; conditions: for Plant response rating, Blackgrass: 125 g ai/ha, 0 to 100 scale where 0 is no effect and 100 is complete control; for Blackgrass plant response rating: 500 g ai/ha, 0 to 100 scale, 0 is no effect, 100 is complete control
Method in brief: (§2)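 Seedlings in a loam soil and sand mix received formulated compound postemergence at the one- to two-leaf stage. Greenhouse holding lasts approximately 10 d, then injury is scored visually relative to untreated plants, 0 meaning no effect and 100 complete control.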

[7] = system: galium (catchweed bedstraw, Galium aparine); assay: Test A greenhouse herbicide test, postemergence; conditions: for Plant response rating, Galium: 125 g ai/ha, 0 to 100 scale where 0 is no effect and 100 is complete control; for Galium plant response rating: 500 g ai/ha, 0 to 100 scale, 0 is no effect, 100 is complete control
Method in brief: as §2

[8] = system: barnyardgrass (Echinochloa crus-galli); assay: Test C greenhouse herbicide test, pre- and postemergence
Method in brief: (§3)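 Percent-control ratings (0 none, 100 complete) came from visual comparison with controls held alongside in the greenhouse for 13–15 d. Treatments covered soil application at sowing and foliar application to young plants 2–18 cm tall.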

[9] = system: galium (catchweed bedstraw, Galium aparine); assay: as above
Method in brief: as §3

[10] = system: nutsedge, yellow (yellow nutsedge, Cyperus esculentus); assay: as above
Method in brief: as §3

[11] = system: wheat (winter wheat, Triticum aestivum); assay: as above
Method in brief: as §3

[12] = Postemergence, 125 g ai/ha, 0 to 100 scale where 0 is no effect and 100 is complete control
[13] = Postemergence, 500 g ai/ha, 0 to 100 scale, 0 is no effect, 100 is complete control
[14] = Preemergence, 125 g ai/ha, 0 to 100 scale where 0 is no effect and 100 is complete control
[15] = Preemergence, 500 g ai/ha, 0 to 100 scale where 0 is no effect and 100 is complete control
[16] = Postemergence, 31 g ai/ha, 0 to 100 scale (0 no effect, 100 complete control)
[17] = Postemergence, 125 g ai/ha, scale 0 to 100, 0 is no effect, 100 is complete control
[18] = Postemergence, 250 g ai/ha, scale 0 to 100, 0 no effect, 100 complete control, 13 to 15 d
[19] = Preemergence, 31 g ai/ha, scale 0 to 100, 0 is no effect, 100 is complete control
[20] = Preemergence, 62 g ai/ha, scale 0 to 100, 0 is no effect, 100 is complete control
[21] = Preemergence, 125 g ai/ha, scale 0 to 100, 0 is no effect, 100 is complete control
[22] = Preemergence, 250 g ai/ha, scale 0 to 100 (0 no effect, 100 complete control)
[23] = postemergence, 62 g ai/ha, scale 0 to 100, 0 no effect, 100 complete control

CCOC(=O)Oc1c(C)nn(C)c(=O)c1-c1c(C)sc2ccc(C)cc12 [Compound 82] was tested, and the “Plant response rating, Barnyardgrass” value [1, 12] was 30, the “Barnyardgrass plant response rating” value [1, 13] was 50 and the “Barnyardgrass plant response rating” value [1, 14] was 40. The “Plant response rating, Barnyardgrass” value [1, 15] was 70, the “Plant response rating, Corn” value [2] was 0 and the “Corn plant response rating” value [2] was 0. The “Plant response rating, Foxtail, Giant” value [3, 12] was 50, the “Foxtail, Giant plant response rating” value [3, 13] was 70 and the “Foxtail, Giant plant response rating” value [3, 14] was 70. For the same compound, the “Plant response rating, Foxtail, Giant” value [3, 15] was 90, the “Plant response rating, Pigweed” value [4, 12] was 60 and the “Pigweed plant response rating” value [4, 13] was 80. The “Pigweed plant response rating” value [4, 14] was 100, the “Plant response rating, Pigweed” value [4, 15] was 100 and the “Plant response rating, Ragweed” value [5, 12] was 70. The “Ragweed plant response rating” value [5, 13] was 70, the “Ragweed plant response rating” value [5, 14] was 80 and the “Plant response rating, Ragweed” value [5, 15] was 80. For the same compound, the “Plant response rating, Blackgrass” value [6] was 70, the “Blackgrass plant response rating” value [6] was 70 and the “Plant response rating, Galium” value [7] was 90. The “Galium plant response rating” value [7] was 90, the “Barnyardgrass plant response rating” value [8, 16] was 20 and the “Plant response rating, Barnyardgrass” value [8, 17] was 25. The “Plant response rating, Barnyardgrass” value [8, 18] was 30, the “Plant response rating, Barnyardgrass” value [8, 19] was 10 and the “Plant response rating, Barnyardgrass” value [8, 20] was 55. For the same compound, the “Plant response rating, Barnyardgrass” value [8, 21] was 70, the “Barnyardgrass plant response rating” value [8, 22] was 90 and the “Barnyardgrass plant response rating” value [8, 23] was 25. For the same compound, the “Plant response rating, Galium” value [9, 17] was 95, the “Plant response rating, Galium” value [9, 18] was 95 and the “Plant response rating, Galium” value [9, 19] was 90. The “Plant response rating, Galium” value [9, 20] was 90, the “Plant response rating, Galium” value [9, 21] was 90 and the “Galium plant response rating” value [9, 22] was 95. The “Galium plant response rating” value [9, 23] was 95, the “Plant response rating, Nutsedge, Yellow” value [10, 17] was 85 and the “Plant response rating, Nutsedge, Yellow” value [10, 18] was 85. The “Plant response rating, Nutsedge, Yellow” value [10, 19] was 35, the “Plant response rating, Nutsedge, Yellow” value [10, 20] was 60 and the “Plant response rating, Nutsedge, Yellow” value [10, 21] was 60. For the same compound, the “Nutsedge, Yellow plant response rating” value [10, 22] was 90, the “Nutsedge, Yellow plant response rating” value [10, 23] was 80 and the “Plant response rating, Wheat” value [11, 17] was 5. The “Plant response rating, Wheat” value [11, 18] was 5, the “Plant response rating, Wheat” value [11, 19] was 0 and the “Plant response rating, Wheat” value [11, 20] was 0. For the same compound, the “Plant response rating, Wheat” value [11, 21] was 0, the “Wheat plant response rating” value [11, 22] was 0 and the “Wheat plant response rating” value [11, 23] was 0.

For CCOC(=O)Oc1c(C)nn(C)c(=O)c1-c1c(C)sc2c(C)cc(C)cc12 [Compound 83], the “Plant response rating, Barnyardgrass” value [1, 12] was 40, the “Barnyardgrass plant response rating” value [1, 13] was 90 and the “Barnyardgrass plant response rating” value [1, 14] was 70. The “Plant response rating, Barnyardgrass” value [1, 15] was 100, the “Plant response rating, Corn” value [2] was 0 and the “Corn plant response rating” value [2] was 0. For the same compound, the “Plant response rating, Foxtail, Giant” value [3, 12] was 90, the “Foxtail, Giant plant response rating” value [3, 13] was 100 and the “Foxtail, Giant plant response rating” value [3, 14] was 100. The “Plant response rating, Foxtail, Giant” value [3, 15] was 100, the “Plant response rating, Pigweed” value [4, 12] was 100 and the “Pigweed plant response rating” value [4, 13] was 100. For the same compound, the “Pigweed plant response rating” value [4, 14] was 100, the “Plant response rating, Pigweed” value [4, 15] was 100 and the “Plant response rating, Ragweed” value [5, 12] was 90. The “Ragweed plant response rating” value [5, 13] was 100, the “Ragweed plant response rating” value [5, 14] was 90 and the “Plant response rating, Ragweed” value [5, 15] was 100. The “Plant response rating, Blackgrass” value [6] was 90, the “Blackgrass plant response rating” value [6] was 100 and the “Plant response rating, Galium” value [7] was 100. The “Galium plant response rating” value [7] was 100, the “Barnyardgrass plant response rating” value [8, 16] was 25 and the “Plant response rating, Barnyardgrass” value [8, 17] was 30. The “Plant response rating, Barnyardgrass” value [8, 18] was 45, the “Plant response rating, Barnyardgrass” value [8, 19] was 50 and the “Plant response rating, Barnyardgrass” value [8, 20] was 70. For the same compound, the “Plant response rating, Barnyardgrass” value [8, 21] was 85, the “Barnyardgrass plant response rating” value [8, 22] was 90 and the “Barnyardgrass plant response rating” value [8, 23] was 25. For the same compound, the “Plant response rating, Galium” value [9, 17] was 100, the “Plant response rating, Galium” value [9, 18] was 100 and the “Plant response rating, Galium” value [9, 19] was 90. The “Plant response rating, Galium” value [9, 20] was 90, the “Plant response rating, Galium” value [9, 21] was 95 and the “Galium plant response rating” value [9, 22] was 95. The “Galium plant response rating” value [9, 23] was 90, the “Plant response rating, Nutsedge, Yellow” value [10, 17] was 85 and the “Plant response rating, Nutsedge, Yellow” value [10, 18] was 90. The “Plant response rating, Nutsedge, Yellow” value [10, 19] was 85, the “Plant response rating, Nutsedge, Yellow” value [10, 20] was 90 and the “Plant response rating, Nutsedge, Yellow” value [10, 21] was 85. The “Nutsedge, Yellow plant response rating” value [10, 22] was 95, the “Nutsedge, Yellow plant response rating” value [10, 23] was 80 and the “Plant response rating, Wheat” value [11, 17] was 0. The “Plant response rating, Wheat” value [11, 18] was 0, the “Plant response rating, Wheat” value [11, 19] was 0 and the “Plant response rating, Wheat” value [11, 20] was 0. The “Plant response rating, Wheat” value [11, 21] was 0, the “Wheat plant response rating” value [11, 22] was 0 and the “Wheat plant response rating” value [11, 23] was 0.

In the case of Cc1cc(C)c2sc(C)c(-c3c(OC(=O)OCCCl)c(C)nn(C)c3=O)c2c1 [Compound 85], the “Plant response rating, Barnyardgrass” value [1, 12] is reported as 30, the “Barnyardgrass plant response rating” value [1, 13] is reported as 80 and the “Barnyardgrass plant response rating” value [1, 14] is reported as 70. The “Plant response rating, Barnyardgrass” value [1, 15] was 100, the “Plant response rating, Corn” value [2] was 0 and the “Corn plant response rating” value [2] was 0. The “Plant response rating, Foxtail, Giant” value [3, 12] was 90, the “Foxtail, Giant plant response rating” value [3, 13] was 90 and the “Foxtail, Giant plant response rating” value [3, 14] was 100. For the same compound, the “Plant response rating, Foxtail, Giant” value [3, 15] was 100, the “Plant response rating, Pigweed” value [4, 12] was 90 and the “Pigweed plant response rating” value [4, 13] was 100. For the same compound, the “Pigweed plant response rating” value [4, 14] was 100, the “Plant response rating, Pigweed” value [4, 15] was 100 and the “Plant response rating, Ragweed” value [5, 12] was 90. The “Ragweed plant response rating” value [5, 13] was 90, the “Ragweed plant response rating” value [5, 14] was 90 and the “Plant response rating, Ragweed” value [5, 15] was 90. The “Plant response rating, Blackgrass” value [6] was 90, the “Blackgrass plant response rating” value [6] was 90 and the “Plant response rating, Galium” value [7] was 90. For the same compound, the “Galium plant response rating” value [7] was 100, the “Barnyardgrass plant response rating” value [8, 16] was 25 and the “Plant response rating, Barnyardgrass” value [8, 17] was 40. The “Plant response rating, Barnyardgrass” value [8, 18] was 50, the “Plant response rating, Barnyardgrass” value [8, 19] was 35 and the “Plant response rating, Barnyardgrass” value [8, 20] was 60. The “Plant response rating, Barnyardgrass” value [8, 21] was 80, the “Barnyardgrass plant response rating” value [8, 22] was 90 and the “Barnyardgrass plant response rating” value [8, 23] was 45. The “Plant response rating, Galium” value [9, 17] was 100, the “Plant response rating, Galium” value [9, 18] was 100 and the “Plant response rating, Galium” value [9, 19] was 90. For the same compound, the “Plant response rating, Galium” value [9, 20] was 90, the “Plant response rating, Galium” value [9, 21] was 95 and the “Galium plant response rating” value [9, 22] was 95. For the same compound, the “Galium plant response rating” value [9, 23] was 100, the “Plant response rating, Nutsedge, Yellow” value [10, 17] was 95 and the “Plant response rating, Nutsedge, Yellow” value [10, 18] was 90. The “Plant response rating, Nutsedge, Yellow” value [10, 19] was 70, the “Plant response rating, Nutsedge, Yellow” value [10, 20] was 85 and the “Plant response rating, Nutsedge, Yellow” value [10, 21] was 75. For the same compound, the “Nutsedge, Yellow plant response rating” value [10, 22] was 80, the “Nutsedge, Yellow plant response rating” value [10, 23] was 85 and the “Plant response rating, Wheat” value [11, 17] was 0. The “Plant response rating, Wheat” value [11, 18] was 0, the “Plant response rating, Wheat” value [11, 19] was 0 and the “Plant response rating, Wheat” value [11, 20] was 0. The “Plant response rating, Wheat” value [11, 21] was 0, the “Wheat plant response rating” value [11, 22] was 5 and the “Wheat plant response rating” value [11, 23] was 0.
